The record followed here is doi:10.1101/2025.07.06.663376v1, “Fubylation as a Druggable Ubiquitin-Like Conjugation System Controlling Hippo Pathway Activity” (biorxiv, 2025).

Common to all, as to format: binding
Assay [1] has as its target T1, FAU (Homo sapiens, UniProt P62861).
T1 construct: uncleaved FAU precursor (FUBI fused to ribosomal protein S30); GST-tagged (pGEX-6P-1), E. coli BL21, glutathione agarose
Description: photo-crosslinking, rhodamine-azide click, in-gel fluorescence.

For assay [2], the target named is T2, FUBI (Homo sapiens, UniProt P62861).
T2 construct: gene FAU; mature FUBI (74 residues, ends VAGRMLGG) cut from the FAU precursor (FUBI-eS30 fusion); E. coli BL21; GST-FUBI (pGEX-6P-1) for photolabelling; untagged FUBI (6-HIS-SUMO removed by ULP1) for HDX-MS; printed peptides 32-42 EGIAPEDQVVL and 67-74 VAGRMLGG
Described as above. From the text:
photo-crosslinking, rhodamine-azide click, in-gel fluorescence on FUBI | recombinant preparations of FUBI, but not S30, were dose-dependently labeled by mCMN927

The target in assay [3] is T2, FUBI. Description: HDX-MS (also competition of probe labelling). To be noted: untagged FUBI 5 µM, 600 µM compound, 20 mM Tris-HCl, 100 mM NaCl, pH 8.0, 25 °C; non-covalent; residues 32-42 and 67-74.

The structures appear in SMILES notation.

Take `C#CCCC1(CCN(C)CC2CCN(c3nc(-c4ccncc4)nc4ccccc34)CC2)N=N1` [mCMN927, {2-[3-(but-3-yn-1-yl)diazirin-3-yl]ethyl}(methyl)({1-[2-(pyridin-4-yl)quinazolin-4-yl]piperidin-4-yl}methyl)amine]: the EC50 came out at 4.3 µM in assay [1] and 3.5 µM in assay [2].
`CN(C)CC1CCN(c2nc(-c3ccncc3)nc3ccccc23)CC1` [sCMF231]: the “HDX-MS (also competition of probe labelling)” value in assay [3] is listed as “sCMF231 treatment reduced deuterium exchange within two key regions”.
